Laboratory results taken from the supplement of paper PMC5908809.

Experiments:
IMC-1 (IL-2 20 ng/mL) [1] = test: percent inhibition of viability; higher = more inhibition; details: 72 h
[2] = tested on: normal primary NK cells, pool 3 (3 donors) (IL-2 2.5 ng/mL); test: as above; details: 72 h
YT (IL-2 2.5 ng/mL) [3] = test: as above; details: 72 h
[4] = tested on: normal primary NK cells, pool 1 (3 donors) (IL-2 2.5 ng/mL); test: as above; details: 72 h
KHYG-1 (IL-2 2.5 ng/mL) [5] = test: as above; details: 72 h
NK-92 (IL-2 2.5 ng/mL) [6] = test: as above; details: 72 h
[7] = tested on: normal primary NK cells, pool 1 (3 donors), resting (IL-2 0 ng/mL); test: as above; details: 72 h
KAI3 (IL-2 2.5 ng/mL) [8] = test: as above; details: 72 h
[9] = tested on: normal primary NK cells, pool 2 (3 donors) (IL-2 2.5 ng/mL); test: as above; details: 72 h
NKL (IL-2 2.5 ng/mL) [10] = test: as above; details: 72 h
SNK-6 (IL-2 2.5 ng/mL) [11] = test: as above; details: 72 h
NK-YS (IL-2 2.5 ng/mL) [12] = test: as above; details: 72 h
DERL-7 (IL-2 2.5 ng/mL) [13] = test: as above; details: 72 h
IMC-1 (IL-2 20 ng/mL) [14] = test: drug sensitivity score (DSS) (DSS units); higher = more sensitive; extreme values may be limits of the assay; details: 72 h
[15] = tested on: normal primary NK cells, pool 3 (3 donors) (IL-2 2.5 ng/mL); test: as above; details: 72 h
YT (IL-2 2.5 ng/mL) [16] = test: as above; details: 72 h
[17] = tested on: normal primary NK cells, pool 1 (3 donors) (IL-2 2.5 ng/mL); test: as above; details: 72 h
KHYG-1 (IL-2 2.5 ng/mL) [18] = test: as above; details: 72 h
NK-92 (IL-2 2.5 ng/mL) [19] = test: as above; details: 72 h
[20] = tested on: normal primary NK cells, pool 1 (3 donors), resting (IL-2 0 ng/mL); test: as above; details: 72 h
KAI3 (IL-2 2.5 ng/mL) [21] = test: as above; details: 72 h
[22] = tested on: normal primary NK cells, pool 2 (3 donors) (IL-2 2.5 ng/mL); test: as above; details: 72 h
NKL (IL-2 2.5 ng/mL) [23] = test: as above; details: 72 h
SNK-6 (IL-2 2.5 ng/mL) [24] = test: as above; details: 72 h
NK-YS (IL-2 2.5 ng/mL) [25] = test: as above; details: 72 h
DERL-7 (IL-2 2.5 ng/mL) [26] = test: as above; details: 72 h
[27] = tested on: normal NK cells expanded with K562-aAPC; test: percent inhibition of viability; higher = more inhibition; details: 72 h, IL-2 2.5 ng/mL
Protocol: (§1)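 Drug sensitivity and resistance testing on K562-aAPC-expanded normal NK cells: 5 concentrations (10-fold steps over a 10,000-fold range), 72 h at 37 °C, viability by CellTiter-Glo normalised to DMSO and benzethonium chloride controls; DSS from the fitted curve.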

[28] = tested on: normal NK cells expanded with K562-aAPC; test: drug sensitivity score (DSS) (DSS units); higher = more sensitive; extreme values may be limits of the assay; details: 72 h; IL-2 2.5 ng/mL
Protocol: as §1

CNc1nc(-c2ccc3c(N)n[nH]c3c2)cc(N2C[C@@H](C(=O)NC3CCCCC3)CC[C@H]2C)n1 (max concentration tested 10000 nM)
percent inhibition of viability [%]
Details	1 nM	10 nM	100 nM	1000 nM	10000 nM
DERL-7 (IL-2 2.5 ng/mL) [13]	-6.71	4.6	17.5	62.3	73.1
IMC-1 (IL-2 20 ng/mL) [1]	-3.83	-6.62	-4.53	-20.3	-19.2
KAI3 (IL-2 2.5 ng/mL) [8]	5.2	2.8	14.8	12.4	22.3
KHYG-1 (IL-2 2.5 ng/mL) [5]	2.18	-0.82	1.06	6.54	6.11
NK-92 (IL-2 2.5 ng/mL) [6]	-8.7	-9.38	-10.8	12.7	15.9
NK-YS (IL-2 2.5 ng/mL) [12]	-0.39	1.82	1.37	11.8	12.3
NKL (IL-2 2.5 ng/mL) [10]	-8.02	-17.1	-8.23	7.46	19
SNK-6 (IL-2 2.5 ng/mL) [11]	-15.1	-5.82	-4.32	-18.6	-16.6
YT (IL-2 2.5 ng/mL) [3]	0.91	-0.65	-0.96	-0.24	-1.61
[2]	-9.17	-11.9	-6.95	18.4	14.4
[4]	-8.1	-7.19	-3.29	25.5	14.9
[7]	-13.3	-12.7	-3.91	21.5	9.91
[9]	-9.37	-17	-3.8	12.4	20.9
[27]	-0.16	0.82	7.33	29	34.4

Details	drug sensitivity score
DERL-7 (IL-2 2.5 ng/mL) [26]	13.6
IMC-1 (IL-2 20 ng/mL) [14]	0
KAI3 (IL-2 2.5 ng/mL) [21]	2.49
KHYG-1 (IL-2 2.5 ng/mL) [18]	0
NK-92 (IL-2 2.5 ng/mL) [19]	1.22
NK-YS (IL-2 2.5 ng/mL) [25]	0.64
NKL (IL-2 2.5 ng/mL) [23]	1.31
SNK-6 (IL-2 2.5 ng/mL) [24]	0
YT (IL-2 2.5 ng/mL) [16]	0
[15]	2.05
[17]	3.79
[20]	2.84
[22]	1.91
[28]	5.66

COc1cc2ncnc(Oc3cccc(NC(=O)Nc4cc(C(C)(C)C(F)(F)F)on4)c3)c2cc1OC (max concentration tested 10000 nM)
percent inhibition of viability [%]
Details	1 nM	10 nM	100 nM	1000 nM	10000 nM
DERL-7 (IL-2 2.5 ng/mL) [13]	-5.16	6.23	-3	4.56	-7.99
IMC-1 (IL-2 20 ng/mL) [1]	-1.62	-0.53	0.44	-4.34	6.15
KAI3 (IL-2 2.5 ng/mL) [8]	0.98	-5.32	2.9	6.52	22.6
KHYG-1 (IL-2 2.5 ng/mL) [5]	-4.24	2.96	2.93	12.8	22.6
NK-92 (IL-2 2.5 ng/mL) [6]	-0.01	2.35	-2.76	14.8	28.1
NK-YS (IL-2 2.5 ng/mL) [12]	-5.12	-3.89	6.64	10.2	22.5
NKL (IL-2 2.5 ng/mL) [10]	4.1	2.39	15.8	41.7	42.7
SNK-6 (IL-2 2.5 ng/mL) [11]	-21	-20.4	-14.8	-14.3	-12
YT (IL-2 2.5 ng/mL) [3]	-6.09	0.07	-0.35	27.3	17.8
[2]	-10.2	8.96	-2.46	-8.5	-3.67
[4]	-8.45	9.57	-3.9	2.93	0.51
[7]	-30.4	6.49	-14	-6.06	-6.31
[9]	-11.8	4.36	-8.21	-2.04	-8.58
[27]	-1.51	-5.86	-2.54	20.8	24.9

Details	drug sensitivity score
DERL-7 (IL-2 2.5 ng/mL) [26]	0
IMC-1 (IL-2 20 ng/mL) [14]	0
KAI3 (IL-2 2.5 ng/mL) [21]	1.44
KHYG-1 (IL-2 2.5 ng/mL) [18]	1.77
NK-92 (IL-2 2.5 ng/mL) [19]	2.92
NK-YS (IL-2 2.5 ng/mL) [25]	1.47
NKL (IL-2 2.5 ng/mL) [23]	9.3
SNK-6 (IL-2 2.5 ng/mL) [24]	0
YT (IL-2 2.5 ng/mL) [16]	4.37
[15]	0
[17]	0
[20]	0
[22]	0
[28]	3.18

COc1ccc(-c2cc3c(C)nc(N)nc3n([C@H]3CC[C@H](OCCO)CC3)c2=O)cn1 (max concentration tested 10000 nM)
percent inhibition of viability [%]
Details	1 nM	10 nM	100 nM	1000 nM	10000 nM
DERL-7 (IL-2 2.5 ng/mL) [13]	2.23	21.8	69.6	92	99.9
IMC-1 (IL-2 20 ng/mL) [1]	-2.45	-13.7	-14.2	-15.4	64.2
KAI3 (IL-2 2.5 ng/mL) [8]	1.74	8.43	34.4	63.8	82.1
KHYG-1 (IL-2 2.5 ng/mL) [5]	2.41	2.54	15.7	68.3	103
NK-92 (IL-2 2.5 ng/mL) [6]	16.6	20.7	49.1	75.7	97.2
NK-YS (IL-2 2.5 ng/mL) [12]	1.08	-1.02	20.1	62.4	85
NKL (IL-2 2.5 ng/mL) [10]	-11.1	4.69	32.7	66.2	93.9
SNK-6 (IL-2 2.5 ng/mL) [11]	-16.2	-10.9	2.3	30.8	65.3
YT (IL-2 2.5 ng/mL) [3]	8.27	10.8	38.5	76.5	86.5
[2]	5.05	8.38	19.9	31.5	96.7
[4]	-2.26	7.17	28.9	35.8	99.4
[7]	19.4	14.7	33.7	39	98.8
[9]	-0.57	7.93	21.5	39.9	96.6
[27]	-6.01	3.97	27.8	42.7	60.2

Details	drug sensitivity score
DERL-7 (IL-2 2.5 ng/mL) [26]	27.6
IMC-1 (IL-2 20 ng/mL) [14]	2.72
KAI3 (IL-2 2.5 ng/mL) [21]	16.5
KHYG-1 (IL-2 2.5 ng/mL) [18]	15
NK-92 (IL-2 2.5 ng/mL) [19]	22.4
NK-YS (IL-2 2.5 ng/mL) [25]	14.1
NKL (IL-2 2.5 ng/mL) [23]	16.6
SNK-6 (IL-2 2.5 ng/mL) [24]	7.29
YT (IL-2 2.5 ng/mL) [16]	19.1
[15]	8.86
[17]	11.4
[20]	14.5
[22]	11
[28]	11.5
